Measured values taken from US9757363B2, “SNS-595 and methods of using the same” (Sunesis Pharmaceuticals, Inc., priority 2004, dated 2017).
Read-outs that look alike come from different tables or passages of the source.

Test: Pharmacokinetics of SNS-595 in cancer patients
Type: in vivo, human
Settings: for AUC(0-t) / AUC(0-inf) / MRT inf / Cmax: human, intravenous
Protocol: SNS-595 was administered to enrolled patients for up to six cycles. A cycle is defined as a three-week period, with SNS-595 administered on the first day of each cycle (day 0), followed by at least 21 days of observation. SNS-595 was administered to cohorts of at least 3 patients and dose escalation occurred by sequential cohort.

[1] = 48 mg/m2, plasma, dose 48 mg/m^2
[2] = 60 mg/m2, plasma, dose 60 mg/m^2

## CN[C@H]1CN(c2ccc3c(=O)c(C(=O)O)cn(-c4nccs4)c3n2)C[C@@H]1OC [SNS-595, (+)-1,4-dihydro-7-[(3S,4S)-3-methoxy-4-(methylamino)-1-pyrrolidinyl]-4-oxo-1-(2-thiazoyl)-1,8-naphthyridine-3-carboxylic acid]
Dose escalation by sequential cohort
  relation of dose to AUC^oo: linear
3 mg/m2, plasma, dose 3 mg/m^2
  AUC(0-t): 0.75 µg·h/mL
6 mg/m2, plasma, dose 6 mg/m^2
  AUC(0-t): 2.4 µg·h/mL
6 mg/m2, plasma, dose 6 mg/m^2, read-out: AUCINF_obs
  AUC(0-inf): 2.99 µg·h/mL
6 mg/m2, plasma, dose 6 mg/m^2, read-out: MRTINF_obs
  MRT inf: 29.1 h
12 mg/m2, plasma, dose 12 mg/m^2
  AUC(0-t): 5.4 µg·h/mL
12 mg/m2, plasma, dose 12 mg/m^2, read-out: MRTINF_obs
  MRT inf: 23.7 h
24 mg/m2, plasma, dose 24 mg/m^2
  AUC(0-t): 11.1 µg·h/mL
24 mg/m2, plasma, dose 24 mg/m^2, read-out: MRTINF_obs
  MRT inf: 21.6 h
[1]
  AUC(0-t): 21.1 µg·h/mL
  Cmax: 2.87 µg/mL
48 mg/m2, plasma, dose 48 mg/m^2, read-out: AUCINF_obs
  AUC(0-inf): 27.3 µg·h/mL
48 mg/m2, plasma, dose 48 mg/m^2, read-out: MRTINF_obs
  MRT inf: 28.9 h
[2]
  AUC(0-t): 28.1 µg·h/mL
  Cmax: 4.54 µg/mL
60 mg/m2, plasma, dose 60 mg/m^2, read-out: AUCINF_obs
  AUC(0-inf): 33.6 µg·h/mL
60 mg/m2, plasma, dose 60 mg/m^2, read-out: MRTINF_obs
  MRT inf: 23.7 h
plasma, dose 3 mg/m^2
  CO: 152.25 ng/mL
plasma, dose 6 mg/m^2
  CO: 379.69 ng/mL
plasma, dose 12 mg/m^2
  CO: 2888.66 ng/mL
plasma, dose 24 mg/m^2
  CO: 2924.46 ng/mL
plasma, dose 48 mg/m^2
  CO: 1984.52 ng/mL
  Vss_obs: 1.46 L/kg
plasma, dose 60 mg/m^2
  CO: 4797.47 ng/mL
